Columns and labels:
Assay type in all cases: in vivo
Echinochloa crus-galli [1] = assay: Test Example 1: herbicidal effect test by treatment of rice paddy soil (immediately after seeding)
Outline: (§1)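 Puddled, fertilized (N:P:K=17:17:17) paddy soil in Wagner pots; seeds sown 0–1 cm deep, flooded to about 3 cm. Emulsifiable formulations diluted in water and dropped into the water immediately after seeding at 120 g active ingredient per 10 ares; greenhouse. Herbicidal rate from dry weight vs untreated at 14 days.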

[2] = system: broad leaf weeds (Lindernia pyxidaria and Monochoria vaginalis); assay: as above
Outline: as §1

Scirpus juncoides [3] = assay: as above
Outline: as §1

Echinochloa crus-galli [4] = assay: Test Example 2: herbicidal effect test by treatment during growing period in paddy rice cultivation (seven days after seeding); details: for Herbicidal rate (%) Echinochloa crus-galli: 120 g/10a active ingredient, assessed 14 days after treatment, dry weight vs untreated area
Outline: (§2)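 Seeds sown 0–1 cm deep in puddled, fertilised paddy soil with about 3 cm standing water in a glass greenhouse. Diluted emulsion dropped into the water seven days after seeding at 120 g active ingredient per 10 ares. Herbicidal rate (%) from mean dry weight vs untreated, duplicate, 14 days after treatment.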

[5] = system: broad leaf weeds (Lindernia pyxidaria and Monochoria vaginalis); assay: as above; details: for Herbicidal rate (%) Lindernia pyxidaria / Herbicidal rate (%) Monochoria vaginalis: 120 g/10a active ingredient, assessed 14 days after treatment, dry weight vs untreated area
Outline: as §2

Scirpus juncoides [6] = assay: as above; details: for Herbicidal rate (%) Scirpus juncoides: 120 g/10a active ingredient, assessed 14 days after treatment, dry weight vs untreated area
Outline: as §2

Echinochloa crus-galli [7] = assay: Test Example 3: herbicidal effect test by treatment of dry field farming soil (one day after seeding); details: 120 g/10a active ingredient, evaluated 14 days after treatment
Outline: (§3)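 Alluvial dry-field soil in pots, top 1 cm mixed with 20 seeds per weed species. One day after seeding, the water-diluted emulsion was sprayed onto the soil surface at 100 L per 10 ares (120 g active ingredient per 10 ares). Duplicate pots; herbicidal rate (%) from plant dry weight versus untreated, 14 days after treatment.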

Amaranthus viridis [8] = assay: as above; details: 120 g/10a active ingredient, evaluated 14 days after treatment
Outline: as §3

southern crabgrass [9] = assay: as above; details: 120 g/10a active ingredient, evaluated 14 days after treatment
Outline: as §3

Chenopodium album [10] = assay: as above; details: 120 g/10a active ingredient, evaluated 14 days after treatment
Outline: as §3

Echinochloa crus-galli [11] = assay: Test Example 4: herbicidal effect test by treatment of leave and stem in dry field farming (seven days after seeding); details: 120 g/10a active ingredient; emulsion sprayed seven days after seeding; evaluated 14 days after treatment
Outline: (§4)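 Twenty seeds per species were mixed into the top 1 cm of alluvial soil in 36 cm^2 pots; emulsions were sprayed seven days after seeding at 100 L per 10 ares (120 g active ingredient per 10 ares). Herbicidal rate (%) = {1 − treated/untreated mean dry weight} × 100, 14 days after treatment, duplicate.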

Amaranthus viridis [12] = assay: as above; details: 120 g/10a active ingredient; emulsion sprayed seven days after seeding; evaluated 14 days after treatment
Outline: as §4

southern crabgrass [13] = assay: as above; details: 120 g/10a active ingredient; emulsion sprayed seven days after seeding; evaluated 14 days after treatment
Outline: as §4

Chenopodium album [14] = assay: as above; details: 120 g/10a active ingredient; emulsion sprayed seven days after seeding; evaluated 14 days after treatment
Outline: as §4

[15] = 120 g/10a active ingredient, dry weight vs untreated area, 14 days after treatment
[16] = Lindernia pyxidaria, 120 g/10a active ingredient, dry weight vs untreated area, 14 days after treatment
[17] = Monochoria vaginalis, 120 g/10a active ingredient, dry weight vs untreated area, 14 days after treatment
[18] = 120 g/10a active ingredient, 14 days after treatment, dry weight vs untreated area
[19] = Lindernia pyxidaria, 120 g/10a active ingredient, 14 days after treatment, dry weight vs untreated area
[20] = Monochoria vaginalis, 120 g/10a active ingredient, 14 days after treatment, dry weight vs untreated area
[21] = 120 g/10a, rated 14 days after treatment, paddy soil pots

SMILES	Herbicidal rate (%) Echinochloa crus-galli (Echinochloa crus-galli [1]; [15]) [%]	Herbicidal rate (%) Lindernia pyxidaria [2, 16] [%]	Herbicidal rate (%) Monochoria vaginalis [2, 17] [%]	Herbicidal rate (%) Scirpus juncoides (Scirpus juncoides [3]; [15]) [%]	Herbicidal rate (%) Echinochloa crus-galli (Echinochloa crus-galli [4]) [%]	Herbicidal rate (%) Lindernia pyxidaria ([5]; Lindernia pyxidaria) [%]	Herbicidal rate (%) Monochoria vaginalis ([5]; Monochoria vaginalis) [%]	Herbicidal rate (%) Scirpus juncoides (Scirpus juncoides [6]) [%]	herbicidal rate, Echinochloa crus-galli (Echinochloa crus-galli [7]) [%]	herbicidal rate, Amaranthus viridis (Amaranthus viridis [8]) [%]	herbicidal rate, southern crabgrass (southern crabgrass [9]) [%]	herbicidal rate, Chenopodium album (Chenopodium album [10]) [%]	herbicidal effect (herbicidal rate), Echinochloa crus-galli (Echinochloa crus-galli [11]) [%]	herbicidal effect (herbicidal rate), Amaranthus viridis (Amaranthus viridis [12]) [%]	herbicidal effect (herbicidal rate), southern crabgrass (southern crabgrass [13]) [%]	herbicidal effect (herbicidal rate), Chenopodium album (Chenopodium album [14]) [%]	Herbicidal rate (%) Echinochloa crus-galli (Echinochloa crus-galli [1]; [18]) [%]	Herbicidal rate (%) Lindernia pyxidaria [2, 19] [%]	Herbicidal rate (%) Monochoria vaginalis [2, 20] [%]	Herbicidal rate (%) Scirpus juncoides (Scirpus juncoides [3]; [18]) [%]	also measured
CCCC(c1ccccc1)n1oc(=O)c(Cc2ccccc2N(S(=O)(=O)C(F)(F)F)S(=O)(=O)C(F)(F)F)c1C (stereo not drawn) [Compound 1-1039]	90	90	80	90	100	70	80	80	90	0	90	0	90	40	90	40	–	–	–	–	–
Cc1c(Cc2ccccc2N(S(=O)(=O)C(F)(F)F)S(=O)(=O)C(F)(F)F)c(=O)on1C(c1ccccc1)C(C)C (stereo not drawn) [Compound 1-1040]	100	100	90	90	100	60	60	70	100	100	100	80	90	50	90	40	–	–	–	–	–
CCCCC(c1ccccc1)n1oc(=O)c(Cc2ccccc2N(S(=O)(=O)C(F)(F)F)S(=O)(=O)C(F)(F)F)c1C (stereo not drawn) [Compound 1-1041]	100	90	90	90	90	70	70	70	70	50	80	50	40	60	50	40	–	–	–	–	–
Cc1c(Cc2ccccc2N(S(=O)(=O)C(F)(F)F)S(=O)(=O)C(F)(F)F)c(=O)on1C(C)Cc1ccccc1 (stereo not drawn) [Compound 1-1045]	100	90	80	90	90	60	90	90	90	40	50	40	90	60	40	0	–	–	–	–	–
Cc1c(Cc2ccccc2N(S(=O)(=O)C(F)(F)F)S(=O)(=O)C(F)(F)F)c(=O)on1C1CCCc2ccccc21 (stereo not drawn) [Compound 1-1050]	–	–	–	–	90	100	90	90	100	90	90	90	50	40	40	50	100	100	100	90	–
Cc1ccc(S(=O)(=O)N(c2ccccc2Cc2c(C)n(C(C)C)oc2=O)S(=O)(=O)C(F)(F)F)cc1 [Compound 1-1127]	–	–	–	–	–	–	–	–	90	40	70	60	90	40	40	40	100	100	100	90	herbicidal rate, Echinochloa crus-galli (Echinochloa crus-galli [4]; [21]): 100%; herbicidal rate, Lindernia pyxidaria ([5]; Lindernia pyxidaria, 120 g/10a, rated 14 days after treatment, paddy soil pots): 100%; herbicidal rate, Monochoria vaginalis ([5]; Monochoria vaginalis, 120 g/10a, rated 14 days after treatment, paddy soil pots): 100%; herbicidal rate, Scirpus juncoides (Scirpus juncoides [6]; [21]): 90%

From patent US11109593B2, “Isoxazolin-5-one derivative and herbicide containing same as active ingredient” (HOKKO CHEMICAL INDUSTRY CO., LTD., priority 2017, dated 2021)
